Measured values: patent US20100216724A1, “USE OF F[…] (196-203 ) AS A […] AGENT” (priority 2007, published 2010)
Where no end group is shown, it is not given here.

How the values were obtained:
HIV-1IIIB = experiment: HIV-1 antiviral assay (CPE reduction, MTS) in CEM-SS cells; type: cell-based; details: test peptide 10 micrograms per ml, 6 days post-infection
Pseudomonas aeruginosa = Pseudomonas aeruginosa assay; type: cell-based; details: Pseudomonas aeruginosa growth; peptide 10 micrograms per ml; read visually
in vitro = details: human, HepG2-2.2.15 cells
[1] = Cytotoxicity (MTS cell viability) in the HIV-1 assay; details: human, CEM-SS cells
MRSA = MRSA growth; peptide 10 micrograms per ml; read visually
Streptococcus pneumoniae = Streptococcus pneumoniae assay; type: cell-based; details: Streptococcus pneumoniae growth; peptide 10 micrograms per ml; read visually
[2] = Cytotoxicity testing (CellTiter 96) in MRC-5 cells; type: cell-based; details: human, MRC-5 cells (human embryonal lung fibroblasts), 6 days incubation, read-out: % Cell viability
Method: Ganciclovir was used as positive control. […] For cytotxicity testing, MRC-5 cells were seeded at 2,500 cells/well in 96 well plates using growth medium. […] The following day, peptide were added and tested in duplicates. After a 6 days incubation period, cell viability was measured using CellTiter 96 Solution (Promega). Plates were incubated for additional 4 hours at 37° C.

Compound | % CPE reduction in HIV-1 infected CEM-SS cells (HIV-1IIIB) [%] | % inhibition (Pseudomonas aeruginosa) [%] | viability at 144 h, 10 micrograms per ml (in vitro) [%] | viability at 10 micrograms per ml [1] [%] | % inhibition (MRSA) [%] | % inhibition (Streptococcus pneumoniae) [%] | viability at 144 h [2] [%]
Cc1cn([C@H]2C[C@H](N=[N+]=[N-])[C@@H](CO)O2)c(=O)[nH]c1=O [AZT] | 99 | – | – | – | – | – | –
SRNRCNDQ-NH2 | – | 0.0 | 100 | 100 | 0.0 | 0.0 | 100
